{
  "source": "patent US20070185149A1",
  "about": "“Novel amido-substituted hydroxy-6-phenylphenanthridines and their use as pde4 inhibtors” (ALTANA PHARMA AG, priority 2004, published 2007)",
  "data": [
    {"molecular_target": "T1, PDE4B2 (Homo sapiens, UniProt Q07343)", "T1 construct": "made in house; host or cells: SF21 insect cells (baculovirus; virus prepared in SF9 cells)", "T1 sequence (Q07343 1-564 isoform Q07343-2)": "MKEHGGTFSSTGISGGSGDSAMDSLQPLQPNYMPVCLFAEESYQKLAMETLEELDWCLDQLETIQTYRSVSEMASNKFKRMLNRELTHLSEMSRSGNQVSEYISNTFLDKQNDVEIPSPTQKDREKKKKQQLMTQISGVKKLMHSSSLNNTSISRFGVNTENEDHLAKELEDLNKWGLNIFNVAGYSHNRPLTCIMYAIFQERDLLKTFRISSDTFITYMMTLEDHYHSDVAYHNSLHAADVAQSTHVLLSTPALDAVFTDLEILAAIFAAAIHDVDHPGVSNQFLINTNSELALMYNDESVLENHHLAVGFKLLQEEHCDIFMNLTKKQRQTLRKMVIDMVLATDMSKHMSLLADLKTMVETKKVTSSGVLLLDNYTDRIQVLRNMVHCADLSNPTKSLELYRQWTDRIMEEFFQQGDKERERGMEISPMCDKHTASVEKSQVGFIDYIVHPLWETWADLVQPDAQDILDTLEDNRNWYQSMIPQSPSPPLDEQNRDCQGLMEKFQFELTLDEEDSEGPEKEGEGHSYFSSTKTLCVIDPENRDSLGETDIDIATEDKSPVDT", "experiment": "Inhibition of PDE4 activity: PDE4B2 [3H]cAMP SPA enzyme assay", "type": "biochemical", "conditions": "recombinant PDE4B2 (SF21 cell supernatant), modified SPA test, 0.5 μM cAMP, 15 min at 37° C.; read-out: Inhibition of the PDE4 activity, −log IC50 (converted)", "experimental": "The PDE4B2 (GB no. M97515) was a gift of Prof. M. Conti (Stanford University, USA). It was amplified from the original plasmid (pCMV5) via PCR with primers Rb9 (5′-[…]-3′) and Rb10 (5′-[…]-3′) and cloned into the pCR-Bac vector (Invitrogen, Groningen, NL).\nThe recombinant baculovirus was prepared by means of homologous recombination in SF9 insect cells.\nThe expression plasmid was cotransfected with Bac-N-Blue (Invitrogen, Groningen, NL) or Baculo-Gold DNA (Pharmingen, Hamburg) using a standard protocol (Pharmingen, Hamburg). Wt virus-free recombinant virus supernatant was selected using plaque assay methods. After that, high-titre virus supernatant was prepared by amplifying 3 times. PDE was expressed in SF21 cells by infecting 2×10^6 cells/ml with an MOI (multiplicity of infection) between 1 and 10 in serum-free SF900 medium (Life Technologies, Paisley, UK). The cells were cultured at 28° C. for 48-72 hours, after which they were pelleted for 5-10 min at 1000 g and 4° C.\nThe SF21 insect cells were resuspended, at a concentration of approx. 10^7 cells/ml, in ice-cold (4° C.) homogenization buffer (20 mM Tris, pH 8.2, containing the following additions: 140 mM NaCl, 3.8 mM KCl, 1 mM EGTA, 1 mM MgCl2, 10 mM β-mercaptoethanol, 2 mM benzamidine, 0.4 mM Pefablock, 10 μM leupeptin, 10 μM pepstatin A, 5 μM trypsin inhibitor) and disrupted by ultrasonication. The homogenate was then centrifuged for 10 min at 1000×g and the supernatant was stored at −80° C. until subsequent use (see below). The protein content was determined by the Bradford method (BioRad, Munich) using BSA as the standard.\nPDE4B2 activity is inhibited by the said compounds in a modified SPA (scintillation proximity assay) test, supplied by Amersham Biosciences (see procedural instructions “phosphodiesterase [3H]cAMP SPA enzyme assay, code TRKQ 7090”), carried out in 96-well microtitre plates (MTP's). The test volume is 100 μl and contains 20 mM Tris buffer (pH 7.4), 0.1 mg of BSA (bovine serum albumin)/ml, 5 mM Mg^2+, 0.5 μM cAMP (including about 50,000 cpm of [3H]cAMP), 1 μl of the respective substance dilution in DMSO and sufficient recombinant PDE (1000×g supernatant, see above) to ensure that 10-20% of the cAMP is converted under the said experimental conditions. […] After a preincubation of 5 min at 37° C., the reaction is started by adding the substrate (cAMP) and the assay is incubated for a further 15 min; after that, it is stopped by adding SPA beads (50 μl). In accordance with the manufacturer's instructions, the SPA beads had previously been resuspended in water, but were then diluted 1:3 (v/v) in water; the diluted solution also contains 3 mM IBMX to ensure a complete PDE activity stop. After the beads have been sedimented (>30 min), the MTP's are analyzed in commercially available […]. The corresponding IC50 values of the compounds for the inhibition of PDE activity are determined from the concentration-effect curves by means of non-linear regression.", "units": {"IC50": "nM"}, "values": [
      {"compound": "COc1cc2c(cc1OC(F)F)[C@H]1C[C@H](O)CC[C@H]1N=C2c1ccc(C(=O)N2CCN(c3ccncc3)CC2)cc1", "note": "(racemic) [Compound 30, 1-{4-[(2RS,4aRS,10bRS)-9-(1,1-Difluoro-methoxy)-2-hydroxy-8-methoxy-1,2,3,4,4a,10b-hexahydro-phenanthridin-6-yl]-phenyl}-1-(4-pyridin-4-yl-piperazin-1-yl)-methanone]", "IC50": "0.955 to 8.71"},
      {"compound": "COc1cc2c(cc1OC(F)F)[C@H]1C[C@H](O)CC[C@H]1N=C2c1ccc(C(=O)N2CCN(CC(=O)Nc3ccccn3)CC2)cc1", "note": "(racemic) [Compound 31, 2-[4(1-{4-[(2RS,4aRS,10bRS)-9-(1,1-Difluoro-methoxy)-2-hydroxy-8-methoxy-1,2,3,4,4a,10b-hexahydro-phenanthridin-6-yl]-phenyl}-methanoyl)-piperazin-1-yl]-N-pyridin-2-yl-acetamide]", "IC50": "0.955 to 8.71"},
      {"compound": "COc1cc2c(cc1OC(F)F)[C@H]1C[C@H](O)CC[C@H]1N=C2c1ccc(C(=O)N2CCCC2)cc1", "note": "(racemic) [Compound 33, 1-{4-[(2RS,4aRS,10bRS)-9-(1,1-Difluoro-methoxy)-2-hydroxy-8-methoxy-1,2,3,4,4a,10b-hexahydro-phenanthridin-6-yl]-phenyl}-1-pyrrolidin-1-yl-methanone]", "IC50": "0.955 to 8.71"},
      {"compound": "COc1cc2c(cc1OC(F)F)[C@H]1C[C@H](O)CC[C@H]1N=C2c1ccc(C(=O)N2CCN(CCN(C)C)CC2)cc1", "note": "(racemic) [Compound 35, 1-{4-[(2RS,4aRS,10bRS)-9-(1,1-Difluoro-methoxy)-2-hydroxy-8-methoxy-1,2,3,4,4a,10b-hexahydro-phenanthridin-6-yl]-phenyl}-1-[4-(2-dimethylamino-ethyl)-piperazin-1-yl]-methanone]", "IC50": "0.955 to 8.71"},
      {"compound": "COc1cc2c(cc1OC)C1CC(O)CCC1N=C2c1ccc(C(=O)NCCN2CCOCC2)cc1", "note": "(centres unmarked) [Compound 1]", "IC50": "0.955 to 8.71"},
      {"compound": "COc1cc2c(cc1OC)C1CC(O)CCC1N=C2c1ccc(C(=O)NCCCN2CCOCC2)cc1", "note": "(centres unmarked) [Compound 2]", "IC50": "0.955 to 8.71"},
      {"compound": "COc1cc2c(cc1OC)C1CC(O)CCC1N=C2c1ccc(C(=O)NN2CCOCC2)cc1", "note": "(centres unmarked) [Compound 4]", "IC50": "0.955 to 8.71"},
      {"compound": "COC(=O)CN(C)C(=O)c1ccc(C2=NC3CCC(O)CC3c3cc(OC)c(OC)cc32)cc1", "note": "(centres unmarked) [Compound 5]", "IC50": "0.955 to 8.71"},
      {"compound": "COc1cc2c(cc1OC)C1CC(O)CCC1N=C2c1ccc(C(=O)N2CCN(c3ccccn3)CC2)cc1", "note": "(centres unmarked) [Compound 8]", "IC50": "0.955 to 8.71"},
      {"compound": "CCN(CCOC)C(=O)c1ccc(C2=NC3CCC(O)CC3c3cc(OC)c(OC)cc32)cc1", "note": "(centres unmarked) [Compound 10]", "IC50": "0.955 to 8.71"},
      {"compound": "COc1cc2c(cc1OC)C1CC(O)CCC1N=C2c1ccc(C(=O)N2CCN(CC(=O)N(C)C)CC2)cc1", "note": "[Compound 16, 2-(4-{1-[4-((2R,4aR,10bR)-2-Hydroxy-8,9-dimethoxy-1,2,3,4,4a,10b-hexahydro-phenanthridin-6-yiyphenyl]-methanoyl}-piperazin-1-yl)-N,N-dimethyl-acetamide]", "IC50": "0.955 to 8.71"},
      {"compound": "COc1cc2c(cc1OC)C1CC(O)CCC1N=C2c1ccc(C(=O)N2CCN(c3ccncc3)CC2)cc1", "note": "(centres unmarked) [Compound 18]", "IC50": "0.955 to 8.71"},
      {"compound": "COc1cc2c(cc1OC(F)F)C1CC(O)CCC1N=C2c1ccc(C(=O)N2CCN(CC(=O)N3CCOCC3)CC2)cc1", "note": "(stereo not drawn) [Compound 32, 2-[4-(1-{4-[(2RS,4aRS,10bRS)-9-(1,1-Difluoro-methoxy)-2-hydroxy-8-methoxy-1,2,3,4,4a,10bhexahydro-phenanthridin-6-yl]-phenyl}-methanoyl)-piperazin-1-yl]-1-morpholin-4-yl-ethanone]", "IC50": "0.955 to 8.71"},
      {"compound": "COc1cc2c(cc1OC(F)F)C1CC(O)CCC1N=C2c1ccc(C(=O)N2CCN(CC(=O)N(C)C)CC2)cc1", "note": "(stereo not drawn) [Compound 34, 2-[4-(1-{4-[(2RS,4aRS,10bRS)-9-(1,1-Difluoro-methoxy)-2-hydroxy-8-methoxy-1,2,3,4,4a,10bhexahydro-phenanthridin-6-yl]-phenyl}-methanoyl)-piperazin-1-yl]-N,N-dimethyl-acetamide]", "IC50": "0.955 to 8.71"}
    ]}
  ]
}
